Like-named read-outs stand apart in the source and are kept apart here.
Experiments:
MCP5/L cells [1] = details: IgE-receptor cross-linkage 30 min, various concentrations of EDTA, FIG. 8B
Protocol: Activation of mast cells in vitro. For FcεRI-dependent activation, MCP5/L cells were resuspended at 1×10^6 cells/ml and sensitized using a monoclonal murine IgE anti-TNP (trinitrophenyl) (IgEl-b4, ATCC, Manassas, Va.) antibody (15% hybridoma supernatant) for 90 min. The cells were washed twice with warm medium, followed by challenge with 1 μg/ml TNP-BSA for time periods indicated. For cell viability assays, both the anitbody sensitization and the anitgen challenge were performed in RPMI medium supplemented with 0.5% BSA (Sigma) at 37° C. in a humidified incubator containing 5% CO2. […]
Measurement of release. […] The reaction was stopped by adding glycine (0.2 M, pH 10.7) into each well and the absorbance was measured. Percentage of β-hexosaminidase release is calculated as the absorbance of the supernatant over that of the combination of supernatant and lysate. […]
Effects of cold incubation and EDTA treatment on A1 induction and mast cell degranulation. […] (B) and (C) levels of β-hexosaminidase (β-hex) in the supernatants from either control cells or cells stimulated through IgE-receptor cross-linkage for 30 min, in the absence or presence of various concentrations of EDTA (B), or in cold incubation (C), were determined as a measurement of activation and de-granulation by an enzymatic colorimetric assay

A1 gene = test: RNAse Protection Assay (RPA) of A1 gene expression in MCP5/L mast cells; format: cell-based, mouse
Protocol: Activation of mast cells in vitro. For FcεRI-dependent activation, MCP5/L cells were resuspended at 1×10^6 cells/ml and sensitized using a monoclonal murine IgE anti-TNP (trinitrophenyl) (IgEl-b4, ATCC, Manassas, Va.) antibody (15% hybridoma supernatant) for 90 min. The cells were washed twice with warm medium, followed by challenge with 1 μg/ml TNP-BSA for time periods indicated. For cell viability assays, both the anitbody sensitization and the anitgen challenge were performed in RPMI medium supplemented with 0.5% BSA (Sigma) at 37° C. in a humidified incubator containing 5% CO2. For gene regulation studies, all the incubations were carried out in RPMI medium supplemented with 5% fetal bovine serum and antibiotics on a rocker platform. In some experiments, cells were cross-linked in the medium containing 1 mM EDTA or cells were incubated in ice-cold water during FcεRI cross-linking. Where indicated, various inhibitors were introduced to test their effects on A1 regulation after FcεRI cross-linking. These include bisindolylmaleimid (100 nM), wortmannin (100 nM), SB 203580 (pyridinylimidazole compound, inhibitor of p 38 mitogen-activated protein kinase) (1 μM), PD 98059 (2-(2-amino-3-methoxyphenyl)-4-oxo-4H-[1]benzopyran, inhibitor of mitogen-activated protein kinase Kinase-1 (MEK1)) (10 μM), genistein (1 μM), suramin (100 μM), cyclosporin A (2 μg/ml), dexamethasone (1 μM) and cycloheximide (10 μg/ml). Dexamethasone and suramin were added 14 hr and 24 hr, respectively, before IgE sensitization. All the other inhibitors were added at the same time as FcεRI aggregation. […]
Isolation of RNA and RNAse Protection Assay (RPA) analysis. […] Pixel intensity was determined using a phosphoimaging device. Levels of each gene transcript were quantified by MacBas V2.2 (Fuji Photo Film Co. Ltd., Japan). […]

MCP5/L cells [2] = test: Cell viability by trypan blue exclusion in medium deprived of serum and growth factors; format: cell-based, mouse; details: 4 days in medium deprived of serum and growth factors, FIG. 7
Protocol: The growth factor dependent mouse mast cell line MCP5/L was maintained in the same medium described above. For cell viability assays, the cell suspension was mixed with the vital dye, trypan blue, and only the number of live cells was scored.
For cell viability assays, both the anitbody sensitization and the anitgen challenge were performed in RPMI medium supplemented with 0.5% BSA (Sigma) at 37° C. in a humidified incubator containing 5% CO2.
Cell viability measurement. Trypan blue exclusion assay was used in all of the cell survival experiments. In brief, cell suspension was mixed with the vital dye, trypan blue, and the number of live cells was scored.

## O=C(O)CN(CCN(CC(=O)O)CC(=O)O)CC(=O)O [EDTA]
MCP5/L cells [1]
  β-hexosaminidase release following FcεRI aggregation in the presence of the compound: inhibit release of mast cell granular enzyme β-hexosaminidase
A1 gene
  A1 induction by FcεRI aggregation in the presence of inhibitor: blocked A1 expression

## C[C@@H]1C[C@@H]([C@H](O)CC2CC(=O)NC(=O)C2)C(=O)[C@@H](C)C1 [cycloheximide]
A1 gene; MCP5/L cells, FcεRI crosslinkage 6 hr, wortmannin 100 nM, cyclosporin A 2 μg/ml, cycloheximide 10 μg/ml, dexamethasone 1 μM, EDTA 1 mM, FIG. 8A, 9
  A1 induction by FcεRI aggregation in the presence of inhibitor: could completely block A1 induction

## C[C@H](CCC(=O)O)C[C@H](C)C[C@H](C)C(=O)/C=C(\O)[C@H](C)C[C@H](C)C/C=C/[C@@H](C)[C@@H](O)[C@@H](C)[C@@H](O)C[C@@H]1CC[C@@](C)([C@H]2CC[C@@](C)([C@@H](C)O)O2)O1 [ionomycin]
MCP5/L cells [2]
  Survival of mast cells treated with the compound: promoted mast cell survival
A1 gene; MCP5/L cells exposed for 6 hr, c48/80 at concentrations of up to 1 mg/ml, FIG. 7
  A1 gene expression (transcription) induced by the compound alone: induced expression of A1

Reference: patent US6465187B1, “Method of treatment” (Innoventus Project AB, priority 2000, dated 2002)
